This note sets out measurements from patent US11447523B2, “Methods for reducing CD36 expression” (Cornell Research Foundation, Inc., priority 2005, dated 2022).

The subject of assay [1] is wild-type mice subjected to acute cerebral ischemia. Briefly: Acute cerebral ischemia (30 min middle cerebral artery occlusion) in wild-type mice. The format is in vivo, mouse. To be noted: WT mice. On the procedure:
Cerebral ischemia was induced by occlusion of the right middle cerebral artery for 30 min. Wild-type (WT) mice were given either saline vehicle (Veh) (ip, n=19) or SS-31 (2 mg/kg or 5 mg/kg, ip, n=6) at 0, 6, 24 and 48 h after ischemia. Mice were killed 3 days after ischemia. Brains were removed, frozen, and sectioned. Brain sections were stained by the Nissl stain. Infarct volume and hemispheric swelling was determined using an image analyzer. Data were analyzed by one-way ANOVA with posthoc analysis.
(*P<0.05 compared to Veh).

In assay [2] the test system is CD36 knock-out mice subjected to acute cerebral ischemia. Briefly: Acute cerebral ischemia in CD36 knockout mice. The format is in vivo, mouse. To be noted: CD36 KO mice. As to the method: CD36 knockout (CD36 KO) mice were subjected to acute cerebral ischemia as described under Example 2. CD36 KO mice were given either saline vehicle (Veh) (ip, n=5) or SS-31 (2 mg/kg, i.p. n=5) at 0, 6, 24 and 48 h after 30 min ischemia.

Assay [3] concerns CD36. Kind of assay: CD36 mRNA (real time PCR) in post-ischemic brain of wild-type mice. The format is in vivo, mouse. To be noted: WT mice, SS-31 5 mg/kg ip at 0 and 6 h after 30 min ischemia. On the procedure:
Wild-type mice were given saline vehicle (Veh, i.p., n=6) or SS-31 (5 mg/kg, i.p., n=6) at 0 and 6 h after 30 min ischemia, and CD36 mRNA levels were determined using real time PCR.
For orientation: Quantitative PCR measures a nucleic acid by following its amplification.

The test system of assay [4] is diabetic mice. Briefly: Streptozotocin (STZ)-induced diabetic mice, renal damage. The format is in vivo, CD-1 mice. On the procedure: Streptozotocin (STZ) was used to induce diabetes in mice. Three groups of CD-1 mice were studied. Group I—no STZ treatment; Group II—STZ (50 mg/kg, ip) was given once a day for 5 d; Group III—STZ (50 mg/kg, ip) was given once a day for 5 d, and SS-31 (3 mg/kg, ip) was given once a day for 16 d. […] By week 3, blood glucose values were: Group I (10.6.noteq.0.27 mmol/L); Group II (24.5.noteq.1.15 mmol/L); Group III (21.3 1.48 mmol/L). Animals were sacrificed after 3 weeks and kidney tissues preserved for histopathology. Kidney sections were examined by Periodic Schiff (PAS) staining for renal tubular brush border.
In mice not treated with STZ, the renal brush border in the cortex was stained red with PAS (FIG. 16A, see white arrows).
Kidney sections were examined for apoptosis using the TUNEL assay. After deparaffinization, sections were incubated with deoxynucleotidyl transferase (Tdt) with digoxigenin-dNTP for 1 hour. The reaction was stopped with terminating buffer. A fluorescent anti-digoxigenin antibody was then applied.

The mark [5] stands for this setting: SS-31 2 mg/kg or 5 mg/kg ip at 0, 6, 24, 48 h after ischemia, vs saline, P<0.05.
Setting [6] is: SS-31 2 mg/kg ip at 0, 6, 24, 48 h, vs saline.

Entries after “also recorded” stand apart in the source; their conditions may differ.

As to D-Arg-2′6′Dmt-Lys-Phe-NH2 [SS-31], the “depletion of GSH in the striatum” value in assay [1] (SS-31 2 mg/kg ip at 0, 6, 24, 48 h) was “reduced by SS-31 treatment but did not reach statistical significance”. In addition, the “depletion of GSH in the ipsilateral cortex” value in assay [1] (SS-31 2 mg/kg ip at 0, 6, 24, 48 h, 2 mg/kg) is “significantly reduced; also recorded: reduced the decrease in reduced glutathione (GSH)”. For the same substance, in assay [1] (setting [5]), the hemispheric swelling entry was “significant reduction; also recorded: reduced” and the infarct volume result is “significant reduction in infarct volume; also recorded: reduced infarct volume”. Also, in assay [2] (SS-31 2 mg/kg ip), the “GSH depletion in the ipsilateral cortex” value is recorded as “failed to further prevent GSH depletion; also recorded: did not reduce GSH depletion”. Moreover, in assay [2] (setting [6]), the hemispheric swelling entry is “no effect” and the infarct volume entry was “no effect in reducing infarct volume”. Moreover, the “CD36 mRNA in the ipsilateral brain” value in assay [3] is “significantly reduced; also recorded: reduced CD36 mRNA expression”. In assay [4] (Group III: STZ 50 mg/kg ip 5 d + SS-31 3 mg/kg ip daily 16 d (STZ alone 24.5, no STZ 10.6)), the “blood glucose by week 3” value is listed as 21.3 mmol/L. In addition, in assay [4] (STZ mice, SS-31 3 mg/kg ip daily), the “effect on blood glucose (in words)” value is listed as “without affecting blood glucose”. The “architecture of the proximal renal tubules” value in assay [4] (STZ mice, SS-31 3 mg/kg ip daily, 3 weeks) is reported as “architecture of the proximal renal tubules was preserved”. Besides, in assay [4] (STZ mice, SS-31 3 mg/kg ip daily, 3 weeks, 3 mg/kg), the “apoptotic cells in proximal tubule (TUNEL)” value is given as “dramatically reduced apoptotic cells in the proximal tubule; also recorded: inhibit tubular cell apoptosis; also recorded: significantly reduced”.
